Where two headings read alike, the source gives them in different places.
Experiments:
human platelet PLA2 = target: T1, human platelet PLA2 (Homo sapiens, UniProt P14555); experiment: in vitro isolated phospholipase A2 assay, human platelet PLA2; format: biochemical; details: for inhibition at 10 µM: + values given without explanation, read-out: % Inhibition HP (human platelet); for IC50: Table IV, read-out: IC50 HP (human platelet)
T1 construct: platelet acid extract PLA2; from tissue; host or cells: human platelets, semipurified acid extract
T1 sequence (P14555 21-144): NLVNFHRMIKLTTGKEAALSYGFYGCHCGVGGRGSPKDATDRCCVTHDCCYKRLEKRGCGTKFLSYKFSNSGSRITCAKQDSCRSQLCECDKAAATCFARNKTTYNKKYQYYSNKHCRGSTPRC
Procedure, shortened: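 PLA2 from semipurified human platelet acid extract or purified human synovial fluid, preincubated 30 min at room temperature with compound. ³H-arachidonate-labelled E. coli substrate then added in Tris-HCl pH 7.5, with enzyme giving about 12% hydrolysis. Reaction ran 10 min at 37° C; released arachidonic acid recovered on NH2 columns and measured by β-counting.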

cyclooxygenase (PGE2) = experiment: resident murine peritoneal macrophage assay, PGE2; format: cell-based, mouse (Swiss Webster); details: Mus musculus, Peritoneal macrophage; for IC50: read-out: PGE2 zymosan IC50
Protocol: The ability of the compounds of the invention to act as inhibitors of the enzymes 5-lipoxygenase and cyclooxygenase is measured in the resident murine peritoneal macrophage assay.
Resident peritoneal macrophages are collected from female Swiss Webster mice (49 days old, 20-25 gms, Buckshire) by lavaging with 7-8 ml Hanks Balanced Salt Solution (HBSS) without Ca^++ and Mg^++ (GIBCO). The lavage fluid from several mice is pooled and centrifuged at 4° C. for 10 minutes at 400 xg. The cell pellet is resuspended in Medium 199 (GIBCO) with HEPES buffer containing 100 μg/ml gentamicin. Two ml of the cell suspension (4×10^6 cells) are then plated on 35 mm culture dishes (Nunc).
A macrophage monolayer is established after a 1-1.5 hour incubation of the cells at 37° C. in an atmosphere of […] and 5% CO2. The monolayers are washed 2× with 2 ml HBDSS, containing Ca^++ and Mg^++ after which 2 ml Medium 199 supplemented with 10% freshly thawed heat-inactivated fetal bovine serum and 100 μg/ml gentamicin is added for an overnight incubation.
Residual serum and cellular debris are removed from the monolayers by washing 3× with 2 ml HBSS containing Ca^++ and Mg^++. Macrophages are preincubated for 5 minutes with 1 ml serum-free M199 containing 10 μl dimethyl sulfoxide (DMSO) vehicle or test compound prior to cell activation with zymosan ([…]) or arachidonic acid (AA) (2 μM). After 2 hours, the supernatants are removed and either assayed for LTC4 and PGE2 by radioimmunoassay (RIA) directly or stored at -20° C. In all cases, results are expressed as ng metabolite/4×10^6 cells.
Raw data (dpm) may be stored directly onto an "Autostart" tape using the HP85 in room C-096. The raw data are converted to ng metabolite/4-10^6cells using the standard curve by a "RIANAL" program (HP85) or a "NONLIN" program (HP9816). Results are then expressed as percent inhibition of zymosan induced, leukotriene or prostaglandin synthesis (control) using the equation: [formula]

TPA-induced ear edema = experiment: 12-o-tetradecanoylphorbol acetate (TPA)-induced murine ear edema assay; format: in vivo, mouse (Swiss Webster); details: TPA; for ED50: Mus musculus, sc, 4 h, read-out: Subcutaneous ED50; for ED50 / Subcutaneous % Inhibition at 50 m/kg: subcutaneous
Protocol: The ability of the compounds of the invention to inhibit inflammatory responses is examined in the in vivo arachidonic acid (AA)/12-o-tetradecanoylphorbol acetate (TPA)-induced murine ear edema assay.
Swiss Webster female mice (Buckshire), approximately 8 weeks old are placed into plastic boxes in groups of six. Eight groups of mice receive AA topically on the right ear, and another 8 groups receive TPA topically on the right ear. AA and TPA are dissolved in acetone at concentrations of 100 mg/ml and 100 μg/ml respectively. The phlogistics are applied to the right ear by the means of an automatic pipet. Volumes of 10 μl are applied to the inner and outer surfaces of the ear. Each mouse receives either 2 mg/ear AA or 2 μg/ear TPA. The left ear (control) receives acetone delivered in the same manner. Topical and subcutaneous dosing regimens are as follows 1) drugs are given 30 minutes prior to AA treatment and 2) drugs are given 30 minutes after treatment with TPA.
Measurements are taken with Oditest calipers, 0-10 mm with 0.01 graduations. The right and left ears are measured after 1 hr AA-induced inflammation and 4 hours after TPA-induced inflammation.
The difference between right and left ear thickness is calculated and the significance is determined by a one way analysis of variance with Dunnett's comparisons to control (P=0.05). Drug effects are expressed as a percent change from control values: [formula]

[1] = arachidonic acid stimulation, read-out: PGE2 AA % Inhibition
[2] = zymosan stimulation, read-out: PGE2 zymosan % Inhibition

| Compound | inhibition at 10 µM (human platelet PLA2) | inhibition at 0.1 µM (cyclooxygenase (PGE2); zymosan stimulation) | IC50 (cyclooxygenase (PGE2); zymosan stimulation) | Subcutaneous % Inhibition at 50 m/kg (TPA-induced ear edema; on line of vehicle acetone) | Topical % Inhibition at 200 μg (TPA-induced ear edema; vehicle EPW) | Topical % Inhibition at 200 μg (TPA-induced ear edema; vehicle acetone) | also measured |
| --- | --- | --- | --- | --- | --- | --- | --- |
| CCCCC/C=C\C/C=C\CCCCCCCC(=O)C1=C(O)CSC1=O [Example 46, 4-Hydroxy-3[(Z,Z)-1-oxo-9,12-octadecadienyl]-2(5H)-thiophenone] | 16.4% | 51.9% | 100 nM | 73% | 82% | 41% | inhibition at 0.5 µM (cyclooxygenase (PGE2); [1]): 5%; ED50 (TPA-induced ear edema): 46 mg/kg |
| CCCCCCCCCCC/C=C\CCCCC(=O)C1=C(O)COC1=O [Example 18, (Z)-4-Hydroxy-3-(1-oxo-6-octadecenyl)-2(5H)-furanone] | 46% |  | 140 nM | 37% | 53% | 1% | inhibition at 0.3 µM (cyclooxygenase (PGE2); [1]): -17%; Subcutaneous % Inhibition at 50 m/kg (TPA-induced ear edema; on line of vehicle EPW): 28% |
| CCCCCCCCCCC/C=C\CCCCC(=O)C1=C(O)CSC1=O [Example 51, 4-Hydroxy-3-[(Z)-1-oxo-6-octadecenyl]-2(5H)-thiophenone] | 15.2% | 0.5% |  |  |  |  | inhibition at 0.5 µM (cyclooxygenase (PGE2); [2]): 91.3%; Subcutaneous % Inhibition at 50 m/kg (TPA-induced ear edema; no vehicle on line): 76%; Topical % Inhibition at 200 μg (TPA-induced ear edema; vehicle not given): 55% |
| CCCC/C=C\CCCCCCCC(=O)C1=C(O)CSC1=O [Example 48, 4-Hydroxy-3-[(Z)-1-oxo-9-tetra-decenyl]-2(5H)-thiophenone] | 1.1% | 71.8% |  |  |  |  | inhibition at 0.3 µM (cyclooxygenase (PGE2); [1]): -16%; inhibition at 0.03 µM (cyclooxygenase (PGE2); zymosan stimulation, 0.03 μM): 25.4%; Subcutaneous % Inhibition at 50 m/kg (TPA-induced ear edema; no vehicle on line): 58% |
| CCCCC/C=C\C/C=C\CCCCCCCC(=O)C1=C(O)COC1=O [Example 14, (Z,Z)-4-Hydroxy-3-(1-oxo-9,12-octadecadienyl)-2(5H)-furanone] | 44% |  | 4000 nM | 21% | 51% | 28% | IC50 (human platelet PLA2): 1700 nM; inhibition at 5 µM (cyclooxygenase (PGE2); arachidonic acid stimulation, 5 μM, read-out: PGE2 AA % Inhibition): 38%; ED50 (TPA-induced ear edema): 118 mg/kg; Subcutaneous % Inhibition at 50 m/kg (TPA-induced ear edema; on line of vehicle EPW): 37% |
| CCCCC/C=C\C/C=C\C/C=C\CCCCC(=O)C1=C(O)COC1=O [Example 20, (Z,Z,Z)-4-Hydroxy-3-(1-oxo-6,9,12-octadecatrienyl)-2(5H)-furanone] | 62% |  | 700 nM | 76% | 81% | 80% | inhibition at 1 µM (cyclooxygenase (PGE2); arachidonic acid stimulation, 1.0 μM, read-out: PGE2 AA % Inhibition): 1%; ED50 (TPA-induced ear edema): 31 mg/kg |
| CCCCCCCC/C=C\CCCCCCCC(=O)C1=C(O)CSC1=O [Example 47, 4-Hydroxy-3-[(Z)-1-oxo-9-octadecenyl]-2(5H)-thiophenone] | 13.8% | 48.4% | 100 nM | 77% | 69% | 74% | inhibition at 0.3 µM (cyclooxygenase (PGE2); [1]): -26% |
| CCCCC/C=C\C/C=C\C/C=C\CCCCC(=O)C1=C(O)CSC1=O [Example 50, 4-Hydroxy-3-[(Z,Z,Z)-1-oxo-6,9,12-octadecatrienyl]-2(5H)-thiophenone] | 14.1% | 21.6% |  |  |  |  | inhibition at 0.5 µM (cyclooxygenase (PGE2); [1]): -35%; inhibition at 0.5 µM (cyclooxygenase (PGE2); [2]): 70.1%; ED50 (TPA-induced ear edema): 19 mg/kg; Subcutaneous % Inhibition at 50 m/kg (TPA-induced ear edema; no vehicle on line): 78% |
| CCCC/C=C\CCCCCCCC(=O)C1=C(O)COC1=O [Example 25, 4-Hydroxy-3-((Z)-1-oxo-9-tetradecenyl)-2(5H)-furanone] | 58.3% |  | 200 nM | 64% |  | 30% | IC50 (human platelet PLA2): 26700 nM; Topical % Inhibition at 200 μg (TPA-induced ear edema; vehicle not given): 86% |
| CC/C=C\C/C=C\C/C=C\CCCCCCCC(=O)C1=C(O)COC1=O [Example 15, (Z,Z,Z)-4-Hydroxy-3-(1-oxo-9,12,15-octadecatrienyl)-2(5H)-furanone] | 30% |  | 350 nM |  |  | 34% |  |
| O=C(CCCCCCC/C=C\c1ccc(Cl)cc1)C1=C(O)COC1=O [Example 35, 3-[(Z)-10-(4-chlorophenyl)-1-oxo-9-decenyl]-4-hydroxy-2(5H)-furanone] | 68.6% |  | 150 nM |  |  | 39% | IC50 (human platelet PLA2): 7500 nM |
| CCCCCCCC/C=C\CCCCCCCC(=O)C1=C(O)COC1=O [Example 9, (Z)-4-Hydroxy-3-(1-oxo-9-octadecenyl)-2(5H)-furanone] | 18.5% |  | 200 nM | 7% | 56% | 42% | inhibition at 0.3 µM (cyclooxygenase (PGE2); [1]): 4%; Subcutaneous % Inhibition at 50 m/kg (TPA-induced ear edema; on line of vehicle EPW): 28% |
| CCCCCC1CC1CC1CC1CCCCCCCC(=O)C1=C(O)COC1=O (centres unmarked) [Example 22, 4-Hydroxy-3-[1-oxo-8-[2-[(2-pentylcyclopropyl)methyl]cyclopropyl]octyl]-2(5H)-furanone] | 71% |  | 200 nM | 36% |  | 40% | IC50 (human platelet PLA2): 13100 nM |
| CCCCCCCCCC(=O)C1=C(O)COC1=O [Example 1, 4-Hydroxy-3-(1-oxodecyl)-2(5H)-furanone] | 14.9% |  | 3000 nM | 23% |  | 31% |  |

Source: patent US5242945A, “Tetronic and thiotetronic acid derivatives as phospholipase A2 inhibitors” (American Home Products Corporation, priority 1991, dated 1993)
